Data on 30 compounds can be found in patent US11040976B2, “Substrate selective inhibitors of insulin-degrading enzyme (IDE) and uses thereof” (President and Fellows of Harvard College, priority 2015, dated 2021).

The IC50 is the concentration that inhibits the measured activity by half.

For test [1], the target named is T1, recombinant human IDE42-1019 (Homo sapiens, UniProt P14735).
T1 construct: recombinant human IDE42-1019 (R&D Systems); purchased R&D Systems
T1 sequence (P14735 42-1019): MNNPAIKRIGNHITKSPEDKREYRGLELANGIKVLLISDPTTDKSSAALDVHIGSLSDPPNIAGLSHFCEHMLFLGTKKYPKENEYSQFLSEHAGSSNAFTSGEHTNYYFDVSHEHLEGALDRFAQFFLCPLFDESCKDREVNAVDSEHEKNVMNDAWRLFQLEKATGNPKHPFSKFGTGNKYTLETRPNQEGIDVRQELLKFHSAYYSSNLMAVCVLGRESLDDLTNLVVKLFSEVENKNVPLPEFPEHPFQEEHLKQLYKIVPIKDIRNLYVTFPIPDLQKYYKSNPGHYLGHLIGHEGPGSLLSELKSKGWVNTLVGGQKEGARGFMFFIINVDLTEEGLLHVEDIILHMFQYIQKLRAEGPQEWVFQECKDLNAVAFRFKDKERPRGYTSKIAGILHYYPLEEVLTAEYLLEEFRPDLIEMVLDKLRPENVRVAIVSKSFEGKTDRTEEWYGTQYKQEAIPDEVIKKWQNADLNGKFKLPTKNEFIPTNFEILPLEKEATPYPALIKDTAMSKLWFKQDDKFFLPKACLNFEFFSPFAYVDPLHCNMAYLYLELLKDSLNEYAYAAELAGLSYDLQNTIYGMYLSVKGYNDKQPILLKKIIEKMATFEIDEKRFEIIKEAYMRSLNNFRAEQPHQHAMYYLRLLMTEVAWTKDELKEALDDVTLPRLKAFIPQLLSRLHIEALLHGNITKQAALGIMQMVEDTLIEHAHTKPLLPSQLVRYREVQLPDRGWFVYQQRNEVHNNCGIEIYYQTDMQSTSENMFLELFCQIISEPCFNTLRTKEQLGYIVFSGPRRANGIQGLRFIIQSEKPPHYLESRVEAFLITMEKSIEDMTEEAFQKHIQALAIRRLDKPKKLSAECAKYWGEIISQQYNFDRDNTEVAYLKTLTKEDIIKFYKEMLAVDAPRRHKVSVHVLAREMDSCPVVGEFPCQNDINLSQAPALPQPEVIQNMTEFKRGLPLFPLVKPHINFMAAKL
Put plainly: Protease assay with fluorogenic peptide substrate Mca-[…](Dnp)-OH. It is filed as biochemical. As to conditions: fluorogenic peptide Mca-RPPGFSAFK(Dnp)-OH; for IC50: apparent IC50 for compounds with submaximal inhibition, read-out: IC50 (μM) Proteolysis; for Emax: read-out: Imax (%) Proteolysis (inhibition maximum).

Test [2] concerns the target T2, Human N-His6-IDE42-1019 (E. coli expressed) (Homo sapiens, UniProt P14735).
T2 construct: Human N-His6-IDE42-1019 (E. coli expressed); made in house; host or cells: E. coli (Rosetta 2 (DE3) pLysS, plasmid pTrcHis-A)
T2 sequence (P14735 42-1019): T1 sequence (P14735 42-1019)
Nature of the test: Fluorescence anisotropy high-throughput screening assay (displacement of probe FL-6b). It is filed as binding. As for the experimental part: The fluorescence anisotropy screening method and probe FL-6b are described in PCT application PCT/US2014/064322, incorporated herein by reference.
Human N-His6-IDE42-1019 (E. coli expressed) was mixed with fluorescein-labeled macrocycle FL-6b:
[drawing 802] in 50 mM Tris buffer pH 8.0, with 1 M NaCl, at 25° C. Optimum signal was obtained using a mixture of […] probe FL-6b and 0.5 μM IDE. The “diversity-oriented (DOS) synthesis informer set” compound plates were pinned onto 384-well plates containing the enzyme-probe mixture (50 μL/well). The azetidine screen was pre-printed on 384-well plates and the enzyme-probe mixture was added (50 μL/well). The final compound concentration was 20 μM. IDE inhibitor 6bK was used as a positive control at a final concentration of 1 μM. After 30 minutes of equilibration, the increase in fluorescence anisotropy was recorded using an EnVision spectrophotometer (excitation 492 nm, emission 523 nm). The fluorescence anisotropy was independently measured twice for each screened compound. The Z-scores for each pair of measurements are plotted in FIG. 1A (DOS informer set) and FIG. 1B (azetidines), and average Z-scores are listed for exemplary compounds in Table E1.
Z-scores were calculated based on the raw anisotropy measured for each well according to Eq. 1, wherein x is the raw anisotropy value of the well, μ is the mean of the anisotropy of the negative control wells (DMSO) for the plate, and σ is the standard deviation in anisotropy of the negative control wells (DMSO) for the plate.

The mark [3] stands for this setting: final compound concentration 20 μM (6bK control 1 μM), values without asterisk.
Where [4] appears, read: plateau at high inhibitor concentration.

Consider `O=C(CC1CC1)N1CC(=O)N2[C@H](C1)[C@H](c1ccc(C#Cc3ccccc3)cc1)[C@@H]2CO` [compound 187], for which the IC50 in test [1] is above 20 µM. The “Average Z-score (Fluorescence anisotropy)” value (shortened to “Average Z-score”) in test [2] (setting [3]) is reported as −15.91.

For the compound `Cc1ccccc1-c1ccc([C@H]2[C@H](CO)N3C(=O)CN(C(=O)c4cccnc4)C[C@@H]23)cc1` [compound 491], the half-maximal inhibitory concentration (IC50) in test [1] is above 10 µM. For the same compound, the Emax in test [1] (setting [4]) is 70%. Moreover, in test [2] (setting [3]), the “Average Z-score” value is given as −12.38.

Take `Cc1ccccc1-c1ccc(C2C3CN(C(=O)C4CCCCC4)CC2N3)cc1` (stereo not shown) [C6]: the IC50 in test [1] was found to be 2 µM. Moreover, the Emax in test [1] (setting [4]) was 60%. Moreover, the “Average Z-score” value in test [2] (setting [3]) is −13.8.

As to `Cc1cccc(-c2ccc([C@@H]3[C@@H](CO)N4CCCCN(C(=O)c5cccnc5)C[C@@H]34)cc2)c1` [compound 443], in test [1], the IC50 is above 100 µM. In test [2] (setting [3]), the “Average Z-score” value is −3.13.

`Cc1ccccc1-c1ccc([C@H]2[C@H](CO)N3C(=O)CN(C(=O)Nc4cccc(F)c4)C[C@@H]23)cc1` [compound 534]: the IC50 in test [1] was 7 µM. In addition, the Emax in test [1] (setting [4]) is 70%. The “Average Z-score” value in test [2] (setting [3]) was −3.03.

Turning to `Cc1ccccc1-c1ccc([C@H]2[C@@H](CO)N3CCCCN(C(=O)Nc4ccccc4)C[C@@H]23)cc1` [compound 1570], in test [1], the IC50 stood at 7 µM. Moreover, in test [1] (setting [4]), the Emax turned out to be 40%. For the same compound, in test [2] (setting [3]), the “Average Z-score” value was −1.37.

On to `Cc1ccccc1-c1ccc([C@@H]2[C@H]3CN(C(=O)c4cccnc4)CC(=O)N3[C@H]2CO)cc1` [compound 745], for which, in test [1], the 50% inhibitory concentration (IC50) is 2.5 µM. Further, the Emax in test [1] (setting [4]) stood at 70%. For the same compound, in test [2] (setting [3]), the “Average Z-score” value was −19.67.

As to `Cc1ccccc1-c1ccc([C@H]2[C@H](CO)N3C(=O)CN(C(=O)c4ccc(F)cc4)C[C@@H]23)cc1` [compound 124], in test [1] (setting [4]), the Emax is 70%. Also, the “Average Z-score” value in test [2] (setting [3]) is reported as −16.49.

Regarding `COc1ccccc1C#Cc1ccc([C@H]2[C@H](CO)N3CCCCN(C(=O)C4CCC4)C[C@@H]23)cc1` [compound 180], in test [1] (setting [4]), the Emax came to 80%. In addition, in test [2] (values marked *: from the screen using the diversity-oriented synthesis (DOS) informer set of plates, 20 μM), the “Average Z-score” value is listed as −12.26*.

As for `Cc1cccc(-c2ccc([C@@H]3[C@@H](CO)N4CCCCN(C(=O)NC(C)C)C[C@@H]34)cc2)c1` [compound 777], the Emax in test [1] (setting [4]) stood at 30%. Also, the “Average Z-score” value in test [2] (setting [3]) is given as −5.51.

Consider `Cc1cccc(-c2ccc([C@@H]3[C@H]4CN(C(=O)c5cccnc5)CC(=O)N4[C@H]3CO)cc2)c1` [compound 838], for which the Emax in test [1] (setting [4]) stood at 80%. In addition, the “Average Z-score” value in test [2] (setting [3]) is recorded as −17.68.

Take `COc1ccc(NC(=O)N2CCCCN3[C@H](CO)[C@H](c4ccc(-c5ccccc5C)cc4)[C@@H]3C2)cc1` [compound 529]: in test [1] (setting [4]), the Emax is 30%. Further, the “Average Z-score” value in test [2] (setting [3]) is −0.82.

`Cc1ccccc1-c1ccc([C@H]2[C@@H](CO)N3C(=O)CN(C(=O)Nc4ccc(F)cc4)C[C@H]23)cc1` [compound 510]: the IC50 in test [1] is 0.5 µM. In addition, in test [1] (setting [4]), the Emax worked out at 30%. For the same compound, in test [2] (setting [3]), the “Average Z-score” value was −21.34.

For the compound `Cc1ccccc1-c1ccc([C@@H]2[C@@H](CO)N3CCCCN(C(=O)c4cccnc4)C[C@@H]23)cc1` [compound 353], the Emax in test [1] (setting [4]) is 50%. For the same compound, the “Average Z-score” value in test [2] (setting [3]) is −7.98.

On to `Cc1ccccc1-c1ccc([C@@H]2[C@H]3CN(C(=O)Cc4ccccn4)CC(=O)N3[C@H]2CO)cc1` [compound 140], for which the IC50 in test [1] turned out to be 2.5 µM. Also, in test [1] (setting [4]), the Emax was found to be 50%. The “Average Z-score” value in test [2] (setting [3]) is −17.72.

`Cc1ccccc1-c1ccc([C@H]2[C@H](CO)N3C(=O)CN(S(C)(=O)=O)C[C@@H]23)cc1` [compound 061]: in test [1], the IC50 was above 100 µM. For the same compound, the “Average Z-score” value in test [2] (setting [3]) is listed as −1.36.

Consider `Cc1ccccc1-c1ccc([C@H]2[C@@H](CO)N3C(=O)CN(C(=O)Cc4ccccn4)C[C@@H]23)cc1` [compound 805], for which, in test [1], the IC50 amounted to 2.5 µM. Also, the Emax in test [1] (setting [4]) stood at 70%. The “Average Z-score” value in test [2] (setting [3]) was −17.31.

As to `COc1ccccc1-c1ccc([C@H]2[C@@H](CO)N3CCCCN(C(=O)NC4CCCC4)C[C@H]23)cc1` [compound 439], in test [1], the IC50 is 2.5 µM. In test [1] (setting [4]), the Emax was 50%. Further, the “Average Z-score” value in test [2] (setting [3]) was −19.08.

In the case of `COc1ccccc1-c1ccc([C@H]2[C@@H](CO)N(C(=O)NC(C)C)[C@H]2C#N)cc1` [D2], the Emax in test [1] (setting [4]) worked out at 100%. In test [2] (setting [3]), the “Average Z-score” value is given as −16.33.

With `Cc1ccccc1-c1ccc([C@H]2[C@@H](CO)N3CCCCN(C(=O)c4cccnc4)C[C@H]23)cc1` [compound 397], in test [1] (setting [4]), the “Imax (%) Proteolysis (inhibition maximum)” value turned out to be 70%. The “Average Z-score” value in test [2] (setting [3]) is recorded as −11.37.

For the compound `COc1ccccc1-c1ccc([C@@H]2[C@@H](C#N)N(C(=O)c3cccnc3)[C@@H]2CO)cc1` [D9], in test [1], the IC50 was determined as 7.5 µM. Further, the Emax in test [1] (setting [4]) worked out at 60%. For the same compound, in test [2] (setting [3]), the “Average Z-score” value was −12.03.

Turning to `Cc1cccc(-c2ccc([C@@H]3[C@@H](CO)N4CCCCN(S(=O)(=O)c5cccs5)C[C@@H]34)cc2)c1` [compound 945], the Emax in test [1] (setting [4]) turned out to be 30%. Further, the “Average Z-score” value in test [2] (setting [3]) was −3.77.

Take `OC[C@H]1[C@@H](c2ccc(C#Cc3ccccc3)cc2)[C@@H]2CN(Cc3cncnc3)CCCCN12` [compound 525]: in test [1], the half-maximal inhibitory concentration (IC50) is below 10 µM. The Emax in test [1] (setting [4]) was around 100%. Besides, the “Average Z-score” value in test [2] (setting [3]) is recorded as −16.2.

Regarding `Cc1ccccc1-c1ccc(C2C3CN(C(=O)c4cnccn4)CC2N3)cc1` (stereo not shown) [C1], the concentration for half-maximal inhibition (IC50) in test [1] was determined as 2 µM. Besides, in test [1] (setting [4]), the Emax is 70%. In addition, the “Average Z-score” value in test [2] (setting [3]) is recorded as −20.0.

`Cc1ccccc1-c1ccc(C2C3CN(C(=O)C4CCOCC4)CC2N3)cc1` (stereo not shown) [C7]: in test [1], the IC50 was determined as 2.5 µM. Also, in test [1] (setting [4]), the Emax came out at 80%. In test [2] (setting [3]), the “Average Z-score” value was −7.7.

With `Cc1ccccc1-c1ccc([C@H]2[C@@H](CO)N3CCCCN(C(=O)Cc4ccccn4)C[C@@H]23)cc1` [compound 890], the IC50 in test [1] is above 100 µM. In test [2] (setting [3]), the “Average Z-score” value is −5.69.

As for `Cc1cccc(-c2ccc([C@@H]3[C@@H](CO)N4CCCCN(CCC(F)(F)F)C[C@@H]34)cc2)c1` [compound 073], in test [1], the half-inhibitory concentration (IC50) is above 50 µM. Besides, the “Average Z-score” value in test [2] (setting [3]) was −0.68.

As for `Cc1cccc(-c2ccc([C@@H]3[C@@H](CO)N4CCCCN(S(=O)(=O)c5cccc(C)c5)C[C@@H]34)cc2)c1` [compound 496], the half-inhibitory concentration (IC50) in test [1] is 2.5 µM. The Emax in test [1] (setting [4]) came to 30%. For the same compound, in test [2] (setting [3]), the “Average Z-score” value is reported as −9.77.

With `COc1ccccc1-c1ccc([C@@H]2[C@@H](C#N)N(C(=O)NC3CCCCC3)[C@@H]2CO)cc1` [D8], in test [1], the 50% inhibitory concentration (IC50) was found to be 1 µM. Moreover, in test [1] (setting [4]), the Emax is 40%. Further, the “Average Z-score” value in test [2] (setting [3]) is on record as −33.77.

With `Cc1ccccc1-c1ccc(C2C3CN(Cc4ccncc4)CC2N3)cc1` (stereo not shown) [C3], the concentration for half-maximal inhibition (IC50) in test [1] amounted to 5 µM. Besides, in test [1] (setting [4]), the Emax worked out at 70%. Further, the “Average Z-score” value in test [2] (setting [3]) is −9.02.
